Patent publication US6358885B1, “Substituted phenylheterocyclic herbicides” (Mississippi State University, priority 1992, dated 2002)

Experiments:
Assay in all cases: Test B preemergence/postemergence greenhouse plant response rating 0 to 10
cotton = format: in vivo, Gossypium hirsutum; settings: for Plant response rating, Cotton: 0 to 10 scale
In short: (§1)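 Postemergence treatment of plants two to eighteen cm tall ran alongside preemergence treatment of planted seed, each using compound in a non-phytotoxic solvent.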

rape = format: in vivo, Brassica napus; settings: 0 to 10 scale
In short: as §1

morningglory = format: in vivo, Ipomoea hederacea; settings: 0 to 10 scale
In short: as §1

cocklebur = format: in vivo, Xanthium pensylvanicum; settings: for Plant response rating, Cocklebur: 0 to 10 scale
In short: as §1

bedstraw = format: in vivo, Galium aparine; settings: for Plant response rating, Bedstraw: 0 to 10 scale
In short: as §1

giant foxtail = format: in vivo, Setaria faberii; settings: 0 to 10 scale
In short: as §1

cheatgrass = format: in vivo, Bromus secalinus; settings: for Plant response rating, Cheatgrass: 0 to 10 scale
In short: as §1

crabgrass = format: in vivo, Digitaria spp.; settings: for Plant response rating, Crabgrass: 0 to 10 scale
In short: as §1

CCS(=O)(=O)Oc1cc(-c2nn3c(c2Cl)CCCC3)c(F)cc1Cl [Compound 25]
Plant response rating (0 to 10 scale), Cotton (cotton; POSTEMERGENCE, Rate 50 g/ha): 10 | Plant response rating, Cotton (cotton; POSTEMERGENCE, Rate 200 g/ha): 10 | Plant response rating, Cotton (cotton; PREEMERGENCE, Rate 50 g/ha): 4 | Plant response rating, Cotton (cotton; Rate 200 g/ha, PREEMERGENCE): 5 | Plant response rating, Rape (rape; POSTEMERGENCE, Rate 50 g/ha): 10 | Plant response rating, Rape (rape; POSTEMERGENCE, Rate 200 g/ha): 10 | Plant response rating, Rape (rape; PREEMERGENCE, Rate 50 g/ha): 0 | Plant response rating, Rape (rape; Rate 200 g/ha, PREEMERGENCE): 9 | Plant response rating, Morningglory (morningglory; POSTEMERGENCE, Rate 50 g/ha): 8 | Plant response rating, Morningglory (morningglory; POSTEMERGENCE, Rate 200 g/ha): 10 | Plant response rating, Morningglory (morningglory; PREEMERGENCE, Rate 50 g/ha): 1 | Plant response rating, Morningglory (morningglory; Rate 200 g/ha, PREEMERGENCE): 5 | Plant response rating (0 to 10 scale), Cocklebur (cocklebur; POSTEMERGENCE, Rate 50 g/ha): 7 | Plant response rating, Cocklebur (cocklebur; POSTEMERGENCE, Rate 200 g/ha): 8 | Plant response rating, Cocklebur (cocklebur; PREEMERGENCE, Rate 50 g/ha): 0 | Plant response rating, Cocklebur (cocklebur; Rate 200 g/ha, PREEMERGENCE): 1 | Plant response rating (0 to 10 scale), Bedstraw (bedstraw; POSTEMERGENCE, Rate 50 g/ha): 9 | Plant response rating, Bedstraw (bedstraw; POSTEMERGENCE, Rate 200 g/ha): 9 | Plant response rating, Bedstraw (bedstraw; PREEMERGENCE, Rate 50 g/ha): 5 | Plant response rating, Bedstraw (bedstraw; Rate 200 g/ha, PREEMERGENCE): 10 | Plant response rating, Giant foxtail (giant foxtail; POSTEMERGENCE, Rate 50 g/ha): 3 | Plant response rating, Giant foxtail (giant foxtail; POSTEMERGENCE, Rate 200 g/ha): 4 | Plant response rating, Giant foxtail (giant foxtail; PREEMERGENCE, Rate 50 g/ha): 2 | Plant response rating, Giant foxtail (giant foxtail; Rate 200 g/ha, PREEMERGENCE): 7 | Plant response rating (0 to 10 scale), Cheatgrass (cheatgrass; POSTEMERGENCE, Rate 50 g/ha): 3 | Plant response rating, Cheatgrass (cheatgrass; POSTEMERGENCE, Rate 200 g/ha): 3 | Plant response rating, Cheatgrass (cheatgrass; PREEMERGENCE, Rate 50 g/ha): 0 | Plant response rating, Cheatgrass (cheatgrass; Rate 200 g/ha, PREEMERGENCE): 3 | Plant response rating (0 to 10 scale), Crabgrass (crabgrass; POSTEMERGENCE, Rate 50 g/ha): 3 | Plant response rating, Crabgrass (crabgrass; POSTEMERGENCE, Rate 200 g/ha): 2 | Plant response rating, Crabgrass (crabgrass; PREEMERGENCE, Rate 50 g/ha): 5 | Plant response rating, Crabgrass (crabgrass; Rate 200 g/ha, PREEMERGENCE): 7
